Assay results: PMC2120548 (The Journal of Cell Biology, 1995)
Blank lines part the entries; values can stand above or below the molecule they belong to. Ends that are not written are not given here.

Columns and labels:
[1] = Inhibition of RGD-phage binding to immobilized beta 3
[2] = system: MG-63 osteosarcoma cells, fibronectin; assay: Cell attachment assay on fibronectin; format: cell-based; settings: MG-63 cells, 30 min, crystal violet OD600, mean of triplicate wells
[3] = system: MG-63 osteosarcoma cells, vitronectin; assay: Cell attachment assay on vitronectin; format: cell-based; settings: MG-63 cells, 30 min, crystal violet OD600, mean of triplicate wells
[4] = system: MG-63 osteosarcoma cells, type IV collagen; assay: Cell attachment assay on type IV collagen; format: cell-based; settings: MG-63 cells, 30 min, crystal violet OD600, mean of triplicate wells
[5] = system: III8-11 fibronectin fragment / WDDGWL-phage; assay: Inhibition of WDDGWL-phage binding to fibronectin fragment by peptides; settings: soluble competitor, microtiter assay, Fig. 2 b
RGD-phage = format: binding; settings: peptide coated at 20 μg/ml; mean of triplicate wells
[6] = Inhibition of WDDGWL-phage attachment to immobilized peptides; format: binding; settings: soluble peptide 1 mM; mean of triplicate wells, Fig. 3 b
[7] = Inhibition of RGD-phage attachment to immobilized peptides; format: binding; settings: soluble peptide 1 mM; mean of triplicate wells, Fig. 3 c
fibronectin = assay: Affinity chromatography on *[…]*-Sepharose; format: binding, Human
[8] = system: beta 3 subunit of purified alpha IIb beta 3; assay: Immunoblot of purified alpha IIb beta 3; format: binding
[9] = system: beta 1 and beta 3 integrin subunits in MG-63 total cell extracts; assay: Immunoblot of MG-63 cell extracts; format: binding; settings: peptide 100 μM, Fig. 7 b lanes C and D
[10] = WDDGWL-phage attachment to immobilized peptide; format: binding; settings: peptide coated at 20 μg/ml; mean of triplicate wells
[11] = system: fibronectin type III10 (RGD-containing) fragments; assay: Panning of phage display peptide libraries on fibronectin fragments; format: binding; settings: Table I
[12] = Fibronectin on control peptide column; format: binding; settings: not shown
[13] = system: fibronectin and fibronectin fragments containing the RGD sequence (III10); assay: Phage attachment assay on fibronectin and RGD-containing fibronectin fragments; format: binding, Human
[14] = system: fibronectin fragment III8,9 (RGD-); assay: Phage attachment assay on fibronectin fragment III8,9; format: binding; settings: microtiter wells, OD600, mean of triplicates
[15] = system: control proteins (BSA and GST); assay: Phage attachment assay on control proteins; format: binding; settings: microtiter wells, OD600, mean of triplicates
[16] = system: fragment encompassing the alternatively spliced cell attachment domain of fibronectin; assay: Phage attachment assay on alternatively spliced fibronectin fragment; format: binding; settings: not shown
fibrinogen = settings: aspartic acid residues of DDLW mutated to alanines; cited from earlier work
RGD-mimic OPG2 antibody = settings: aspartic acid residues of DDLW mutated to alanines; ref Bajt et al. (3); cited from earlier work

- effect of EDTA on RGD-phage binding ([1]; peptides coated in the presence of cations, EDTA 10 mM): did not block phage binding
Molecule: O=C(O)CN(CCN(CC(=O)O)CC(=O)O)CC(=O)O [EDTA, reference compound]

Molecule: *CVRLNSLAC* (disulfide) [reference compound]
- inhibition of cell attachment [2]: no effect on any of the substrates
- inhibition of cell attachment [3]: no effect on any of the substrates
- inhibition of cell attachment [4]: no effect on any of the substrates

- inhibition of WDDGWL-phage binding [5]: in a dose-dependent manner
- binding of RGD-phage to immobilized peptide (RGD-phage): can bind to the *CWDDGWLC*-containing
- inhibition of WDDGWL-phage binding to immobilized peptide [6]: blocked the WDDGWL-phage binding
- inhibition of RGD-phage binding to immobilized peptide [7]: inhibited by both peptides
- inhibition of RGD-phage binding ([1]; soluble peptide, Fig. 6 b): blocked
Molecule: *CWDDGWLC* (disulfide)
- binding of fibronectin to peptide-Sepharose (fibronectin; fibronectin 2 mg, TBS, SDS-PAGE): fibronectin bound to *CWDDGWLC*-Sepharose
- inhibition of cell attachment [2]: inhibited cell adhesion
- inhibition of cell attachment [3]: inhibited cell adhesion
- inhibition of cell attachment [4]: not on collagen
- effect of peptide on reactivity of positive control antibodies ([8]; Fig. 7 a or b, also MG-63 extracts): no ef- fect on the reactivity of the positive control antibodies
- reactivity of the anti-*CWDDGWLC* serum after preincubation with peptide ([8]; peptide 100 μM, Fig. 7 a lanes C and D): abrogated
- reactivity of the anti-WDDGWL serum after preincubation with peptide [9]: abrogated

- inhibition of WDDGWL-phage binding [5]: in a dose-dependent manner
- binding of RGD-phage to immobilized peptide (RGD-phage): slight, but consistent, binding
- inhibition of WDDGWL-phage binding to immobilized peptide [6]: blocked the WDDGWL-phage binding
- inhibition of RGD-phage binding to immobilized peptide [7]: inhibited by both peptides
Molecule: A*CRGDGWMC*G (disulfide) [reference compound]
- binding of WDDGWL-phage to immobilized peptide [10]: WDDGWL-phage can bind to the RGD-containing peptide

Molecule: BSA: control protein
- retention on *CWDDGWLC*-Sepharose column (fibronectin; proteins other than fibronectin): not retained

Molecule: DGWLGF
- number of phage displaying the same amino acid motif ([11]; direct infection of wells): 2

Molecule: DYWLGF
- number of phage displaying the same amino acid motif ([11]; direct infection of wells): 1

Molecule: FVLWLV
- number of phage displaying the same amino acid motif ([11]; direct infection of wells): 1

Molecule: Fibronectin
- retention on control unrelated peptide column [12]: not retained

Molecule: GNRLR
- number of phage displaying the same amino acid motif ([11]; direct infection of wells): 1

Molecule: GRGESP
- elution of fibronectin from *CWDDGWLC*-Sepharose (fibronectin; eluting peptide 1 mM, SDS-PAGE): not with the GRGESP peptide

Molecule: LVWLLVQFY
- number of phage displaying the same amino acid motif ([11]; EDTA elution): 2

Molecule: PDDLWWL
- number of phage displaying the same amino acid motif ([11]; direct infection of wells): 3

Molecule: QRIVLGFT
- number of phage displaying the same amino acid motif ([11]; direct infection of wells): 1

Molecule: SWDDGWL
- number of phage displaying the same amino acid motif ([11]; direct infection of wells): 6

Molecule: TLRFQRS
- number of phage displaying the same amino acid motif ([11]; EDTA elution): 1

Molecule: WDDGLM
- number of phage displaying the same amino acid motif ([11]; RGD elution): 7

Molecule: WDDGWL (disulfide (positions not given here))
- number of phage displaying the same amino acid motif ([11]; EDTA elution): 21
- number of phage displaying the same amino acid motif ([11]; RGD elution): 131
- number of phage displaying the same amino acid motif ([11]; direct infection of wells): 45
- divalent cation requirement of phage binding [13]: did not require divalent cations
- phage binding [14]: minimal
- phage binding [15]: minimal
- phage binding [16]: minimal

Molecule: WDDGWM
- number of phage displaying the same amino acid motif ([11]; RGD elution): 4

Molecule: WDDLWWL
- number of phage displaying the same amino acid motif ([11]; RGD elution): 10

Molecule: mutant alIb[33 integrin: integrin with aspartic acid residues of DDLW mutated to alanines (ref 3)
- binding to fibrinogen (fibrinogen): did not appreciably affect the binding
- binding to OPG2 antibody (RGD-mimic OPG2 antibody): lost
